# Data published in patent US20180258428A1, “METHODS AND COMPOSITIONS FOR THE TREATMENT OF A METABOLIC DISORDER” (Children's Hospital Medical Center, priority 2017, published 2018).
# Where two headings read alike, the source gives them in different places.
# Experiments:
# [1] = test system: primary hepatocytes; assay: ATP/ADP ratio assay in primary hepatocytes with metformin; format: cell-based, mouse; conditions: Ago2-deficient primary hepatocytes, 1 mM metformin
# Source text: To further examine if Ago2 deficiency accelerates cellular energy consumption associated with protein synthesis, Applicant treated primary hepatocytes with metformin, which is an anti-diabetic drug and inhibits mitochondrial respiratory-chain complex I activity restricting ATP generation^40, and measured ATP/ADP levels. […] To directly investigate the effect of Ago2-deficiency on protein synthesis in hepatocytes, Applicant measured the levels of nascent protein synthesis. […] By restricting energy supply using phenformin and rotenone, both of which inhibit mitochondrial respiratory-chain complex I activity, the levels of nascent protein synthesis in Ago2-deficient hepatocytes were equivalent or still higher compared to those in controls (FIG. 6G).
# Primary hepatocytes. Hepatocytes were isolated from liver of 12-14 weeks old L-Ago2 WT and 607 L-Ago2 KO mice by a two-step perfusion method as described previously^59 with a slight modification. […]
# ATP/ADP ratio assay. The ATP/ADP ratio in the mouse liver extract or primary hepatocytes was determined using a bioluminescent ATP/ADP Ratio Assay Kit (Abcam) according to the manufacturer's instructions. […]
# [2] = test system: MD-miRNAs; assay: Hepatic miRNA and mRNA expression after S961 or S961 plus metformin treatment; format: in vivo, mouse; conditions: 2 weeks
# Source text: Expression profiles that assessed the effect of insulin insufficiency on miRNAs in the liver categorized four different classes of miRNAs; (I) dominantly expressed in L-Ago2 WT, (II) induced by S961 in both L-Ago2 WT and KO, (III) suppressed by S961 in both L-Ago2 WT and KO, and (IV) expressed in L-Ago2 KO (FIG. 3d). […] These analyses implicate hepatic Ago2-dependent miRNAs play a role in the disruption of glucose metabolism under the condition of insulin insufficiency.
# Quantitative real-time PCR analysis. For mRNA quantification, total RNA was extracted using Trizol reagent (Invitrogen). Total RNA was converted to first strand cDNA using SuperScript® VILO™ cDNA Synthesis Kit (Invitrogen). Quantitative real-time PCR analysis was performed using SYBR Select Master Mix (Applied Biosystems) in a real-time PCR machine (QuantStudio 6 Flex Real-Time PCR system; Thermo Fisher Scientific). To normalize expression data, β-actin mRNA was used as a housekeeping gene. For miRNA quantification, total RNA was extracted using miRNeasy Micro Kit (Qiagen) according to manufacturer's instructions. TaqMan miRNA assays (Life Technologies) were used and real-time PCR were carried out for mature miRNA quantification. Primary miRNAs were quantified using TaqMan […] assays. Sno202 and β-actin were used as internal controls.
# High-throughput sequencing of miRNA. […]
# [3] = Fasting blood glucose in HFD-fed mice before and after oral metformin; format: in vivo, mouse; conditions: oral metformin 80 mg/kg/day for 7 days
# Procedure: (§1) Mice. Animal care and experimental procedures were performed according to procedures approved by the animal care committees of our medical center. […] The ALZET osmotic pump were used to deliver 10 nM S961 or vehicle (PBS) in a two-week period. GTTs were performed by intraperitoneal glucose injection (1.5 g/kg) following an overnight food withdrawal for 14 hours. […] Mouse plasma insulin levels were measured using Mouse Ultrasensitive Insulin ELISA kit (ALPCO).
# [4] = test system: AMPK; assay: AMPK activation in primary hepatocytes with metformin (western blot); format: cell-based, mouse; conditions: Ago2-deficient primary hepatocytes versus controls, 1 mM metformin
# Procedure: Primary hepatocytes. Hepatocytes were isolated from liver of 12-14 weeks old L-Ago2 WT and 607 L-Ago2 KO mice by a two-step perfusion method as described previously^59 with a slight modification. Briefly, the liver was first perfused with 30 ml of HBSS supplemented with 10 mM HEPES, 0.5 mM EGTA and 5 mM glucose and then digested with 35 mL of Collagenase X 610 (WAKO) at 100 U/mL dissolved in HBSS buffer supplemented with 10 mM HEPES and 5 mM CaCl2. Liver was collected after perfusion and hepatocyte were released and sedimented at 60 G for 2 mM. Hepatocyte suspension was then layered on a 40% percoll solution (GE Healthcare Life Sciences) and centrifuged at 800 G for 10 min. The alive hepatocytes were recovered from the bottom of the tube and seeded on culture plates.
# Protein extraction and immunoblot analysis. To prepare protein lysates, cells were washed with cold PBS, followed by lysis in cold mammalian cell lysis buffer [MCLB: 50 mM Tris-HCl (pH 7.4), 150 mM NaCl, 10 mM NaF, 5% glycerol, 1% NP-40, 1% protease and phosphatase inhibitor cocktail]. […]
# [5] = for glucose tolerance (GTT): one week; for hepatic glycogen contents (S961-induced glycogenolysis) / serum insulin levels (S961-induced hyperinsulinemia): 2 weeks post S961 with metformin
# Procedure: as §1
# [6] = test system: primary hepatocytes; assay: Glucose production assay in primary hepatocytes; format: cell-based, mouse; conditions: primary hepatocytes from L-Ago2 WT and KO mice, 100 or 200 μM
# Procedure: To investigate how Ago2 regulates glucose metabolism, Applicant first examined capacities of hepatic gluconeogenesis in Ago2-deficient primary hepatocytes. […] Applicant additionally asked if Ago2 regulates the fundamental catabolic capacities of hepatocytes. To examine the glycolytic rate, the extracellular acidification rate (ECAR) was determined in primary hepatocytes upon addition of glucose. […] Glycolysis produces pyruvate that is used as an energy source for the citric acid cycle.
# Glucose production assay. Mouse primary hepatocytes were cultured in 12-well plates (0.4×10^6 cells per well) in William E supplemented with 10% FBS. Next day, cells were cultured with 1 ml of DMEM (5.5 mM glucose) supplemented with 10% FBS. Post plating for 21 hours, cells were washed twice with PBS and were subjected 3-4 hours to serum starvation with FBS-free DMEM (5.5 mM glucose). After washing twice with PBS, cells were cultured in 0.4 ml of glucose production buffer consisting of glucose-free DMEM (pH 7.4) without phenol red supplemented with 20 mM sodium lactate, 2 mM sodium pyruvate, 2 mM L-glutamine and 15 mM HEPES^62. Cells were incubated at 37° C. for 4.5 hours with or without Bt-cAMP or pCPT-cAMP. Both medium and cells were collected. The glucose concentration was measured with the Autokit Glucose (WAKO) and was normalized by the total protein content.
# [7] = test system: AMPK; assay: AMPK activation in MEFs with cycloheximide (western blot); format: cell-based, mouse; conditions: 25 μg/ml cycloheximide for 8 hours
# Source text: Since Ago2 slicer activity uniquely regulates RNA silencing, Applicant then asked if the slicer activity is involved in the regulation of energy consumption and AMPK activation. […] More importantly, Applicant also observed that AMPK activity, assessed by phosphorylation levels of AMPKα and ACC, was higher in Ago2-deficient MEFs under serum starvation condition (FIG. 16A). […] While activated AMPKα is known to suppress mRNA translation^41, levels of nascent protein synthesis in Ago2-deficient MEFs are increased compared to the cells reconstituted with WT Ago2 (FIG. 16B). To investigate if enhanced protein synthesis reasons AMPK activation in Ago2-deficiency, Applicant treated MEFs with cycloheximide (CHX), a protein synthesis inhibitor, and monitored AMPK activation.
# Mouse embryonic fibroblasts. Ago2-deficient fibroblasts reconstituted with Ago2 WT or DA mutant that were kindly provided by Dr. Eric Lai^22. Applicant generated Ago2^fl/fl MEFs through the 3T3 protocol and performed an adenovirus-mediated gene transfer for Cre or LacZ expression to obtain Ago2-deficient MEFs^60. MEF cells were cultured in Dulbecco Modified Eagle Medium (DMEM) (Thermo Fisher Scientific: #11965) supplemented with 10% FBS. For western blot analyses of AMPK, MEF cells were plated at a density of 1×10^5 cells per well of 6-well plate for overnight. […]
smiles,measurement,setting,value
CN(C)C(=N)N=C(N)N [metformin],relative ATP/ADP levels,[1],rapidly decreased
same,expression of MD-miRNAs in liver,[2]; Ago2-deficient liver,did not affect their expression levels
same,expression of S961-induced MD-miRNAs in liver,[2]; L-Ago2 WT mice,drastic suppression
same,fasting blood glucose levels,[3]; L-Ago2 KO mice fed HFD,no change upon metformin treatment
same,fasting blood glucose levels,[3]; L-Ago2 WT mice fed HFD,reduced fasting blood glucose levels
same,levels of metformin-induced AMPK activation,[4],significantly higher than that in controls
same,glucose tolerance (GTT),"[5]; L-Ago2 KO mice treated with S961, metformin 150 mg/kg/day via osmotic pumps",no change in glucose tolerance
same,hepatic glycogen contents (S961-induced glycogenolysis),[5]; L-Ago2 KO mice,blunted
same,serum insulin levels (S961-induced hyperinsulinemia),[5]; L-Ago2 KO mice,blunted
same,glucose tolerance (GTT),"[5]; L-Ago2 WT mice treated with S961, metformin 150 mg/kg/day via osmotic pumps",improved glucose tolerance
same,hepatic glycogen contents (S961-induced glycogenolysis),[5]; L-Ago2 WT mice,alleviated
same,serum insulin levels (S961-induced hyperinsulinemia),[5]; L-Ago2 WT mice,alleviated S961-induced hyperinsulinemia
"Nc1ncnc2c1nc(Sc1ccc(Cl)cc1)n2[C@@H]1O[C@@H]2COP(=O)([O-])O[C@H]2[C@H]1O.[Na+] [pCPT-cAMP, 8-(4-Chlorophenylthio)adenosine 3′,5′-cyclic monophosphate]",glucose production,[6],similarly induced between genotypes
"CCCC(=O)Nc1ncnc2c1ncn2[C@@H]1O[C@@H]2COP(=O)(O)O[C@H]2[C@H]1OC(=O)CCC [Bt-cAMP, dibutyryl cyclic AMP]",glucose production,[6],similarly induced between genotypes
C[C@@H]1C[C@@H]([C@H](O)CC2CC(=O)NC(=O)C2)C(=O)[C@@H](C)C1 [cycloheximide],AMPK activation,[7]; Ago2-deficient MEFs,more robust
same,AMPK activation,[7]; WT MEFs,reduction of AMPK activation
